Patent publication US10081634B2, “Heterocyclic compound” (Daewoong Pharmaceutical Co., Ltd., priority 2014, dated 2018)
Where a name gives a salt, the structure may show the parent alone.

Legend:
[1] = biological target: T1, PRS (prolyl-tRNA synthetase) (Homo sapiens, UniProt P07814); test: In vitro PRS enzyme activity inhibition experiment ([3H]proline, liquid scintillation); format: biochemical; conditions: purified PRS protein subcloned from EPRS cDNA; 37° C., 5 to 10 minutes; read-out: PRS IC50
T1 construct: the portion corresponding to PRS in cDNA of EPRS was subcloned; made in house
T1 sequence (P07814 1007-1512 limits assumed): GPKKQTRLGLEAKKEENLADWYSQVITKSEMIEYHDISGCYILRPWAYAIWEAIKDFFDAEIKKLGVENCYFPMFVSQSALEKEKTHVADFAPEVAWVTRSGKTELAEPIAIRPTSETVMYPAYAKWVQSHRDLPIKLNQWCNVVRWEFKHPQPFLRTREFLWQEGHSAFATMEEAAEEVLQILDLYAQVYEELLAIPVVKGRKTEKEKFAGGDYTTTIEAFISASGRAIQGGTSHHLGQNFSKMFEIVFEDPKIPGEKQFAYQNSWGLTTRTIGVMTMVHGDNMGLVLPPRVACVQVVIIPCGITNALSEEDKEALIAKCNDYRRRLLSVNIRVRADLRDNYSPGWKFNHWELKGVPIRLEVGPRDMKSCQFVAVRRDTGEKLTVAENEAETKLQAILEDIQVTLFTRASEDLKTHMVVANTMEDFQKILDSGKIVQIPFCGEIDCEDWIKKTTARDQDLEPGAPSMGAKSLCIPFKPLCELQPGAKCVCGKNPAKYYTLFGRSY
Method: In order to confirm the biological activities of the compounds prepared in Examples, % inhibition or IC50 values of PRS enzyme ([…]) activities were calculated.
Specifically, the portion corresponding to PRS in cDNA of EPRS was subcloned, and the obtained high-purity PRS protein was purified and used in the experiment. The compounds (1 μM) prepared in Examples were added into the reaction buffer (20 mM KPO4 (pH 7.4), 6 mM MgAc, 5 mM ATP, […] tRNA, 0.5 mM DTT, 20 mCi[^3H]proline (1 mCi/mL)) and allowed to react at 37° C. for 5 to 10 minutes. The reaction was terminated with 3M paper that was previously dried by addition of 5% TCA. The radioactivity was measured using a liquid scintillation counter.
IC50 values of the respective compounds were calculated and analyzed using Microsoft Excel or Sigma Plot 8.0. In Table 1, the results are divided into A, B and C according to the range of IC50. The case where the derived IC50 is 100 nM or less is represented by “A”, the case where the IC50 is 100 to 500 nM is represented by “B”, and the case where the IC50 is 500 nM or higher is represented by “C”.

NCI-H460 cells = test: Cancer cell growth inhibition experiment (MTT assay); format: cell-based; conditions: Homo sapiens; NCI-H460 lung cancer cell line; 48 hours treatment; MTT cell viability
Method: NCI-H460 cells, lung cancer cell lines, were cultured in 5% CO2, 37° C. incubator using a flask for 75 cm^2 tissue culture. 96-well plates were used for the evaluation. These were prepared by differently applying at concentrations in the range of 6,000 to 12,000 cells/well according to the growth rate of the cell lines. The medium containing 5% FBS were dispensed in 200 μL/well and used. The medium were cultured for 24 hours. After confirming the cell status and dispensing form of a 96-well plate under a microscope, they were used for subsequent experiments. The compounds were evaluated at concentrations of 100, 30, 10, 3, 1, 0.3, 0.03, 0.01 μM. After removing the existing medium, the compounds with various concentrations were treated in an amount of 200 μL/well. The compounds-treated plates were further cultured for 48 hours, and the cell viabilities were measured by MTT assay to calculate IC50 values.
% Inhibition and IC50 values of the respective compounds were calculated and analyzed using Sigma Plot 8.0. The case where the derived IC50 is 5 μM or less is represented by “A”, the case where the IC50 is 5 to 30 μM is represented by “B”, and the case where the IC50 is 30 μM or higher is represented by “C”.

Row | Compound | IC50 [1] | IC50 (NCI-H460 cells)
1 | O=C(C[C@H]1NCCC[C@@H]1O)Cn1cnc2cnc(Cl)cc21 [Example 32, 1-(6-chloro-1H-imidazo[4,5-c]pyridin-1-yl)-3-((2R,3S)-3-hydroxypiperidin-2-yl)propan-2-one] | 100 to 500 nM | ≥ 30000 nM
2 | OC(C[C@H]1NCCC[C@@H]1O)Cn1cnc2cc(Cl)c(Cl)cc21 (stereo partly drawn) [Example 70, (2R,3S)-2-(3-(5,6-dichloro-1H-benzo[d]imidazol-1-yl)-2-hydroxypropyl)piperidin-3-ol] | 100 to 500 nM | 5000 to 30000 nM
3 | O=C(C[C@H]1NCCC[C@@H]1O)Cn1cnc2c(Cl)c(F)ccc21 [Example 21, 1-(4-chloro-5-fluoro-1H-benzo[d]imidazol-1-yl)-3-((2R,3S)-3-hydroxypiperidin-2-yl)propan-2-one] | 100 to 500 nM | 5000 to 30000 nM
4 | Cc1c(Br)cnc2c1ncn2CC(=O)C[C@H]1NCCC[C@@H]1O [Example 40, 1-(6-bromo-7-methyl-3H-imidazo[4,5-b]pyridin-3-yl)-3-((2R,3S)-3-hydroxypiperidin-2-yl)propan-2-one] | < 100 nM | ≤ 5000 nM
5 | O=C(C[C@H]1NCCC[C@@H]1O)Cn1cnc2ccc(Br)cc21 [Example 5, 1-(6-bromo-1H-benzo[d]imidazol-1-yl)-3-((2R,3S)-3-hydroxypiperidin-2-yl)propan-2-one] | < 100 nM | 5000 to 30000 nM
6 | Cc1cc(Cl)cc2c1ncn2CC(=O)C[C@H]1NCCC[C@@H]1O [Example 24, 1-(6-chloro-4-methyl-1H-benzo[d]imidazol-1-yl)-3-((2R,3S)-3-hydroxypiperidin-2-yl)propan-2-one] | < 100 nM | 5000 to 30000 nM
7 | O=C(C[C@H]1NCCC[C@@H]1O)Cn1c(CO)nc2ncccc21 [Example 68, 1-(2-(hydroxymethyl)-1H-imidazo[4,5-b]pyridin-1-yl)-3-((2R,3S)-3-hydroxypiperidin-2-yl)propan-2-one] | 100 to 500 nM | –
8 | Cc1ccc2c(ncn2CC(O)C[C@H]2NCCC[C@@H]2O)c1Br (stereo partly drawn) [Example 73, (2R,3S)-2-(3-(4-bromo-5-methyl-1H-benzo[d]imidazol-1-yl)-2-hydroxypropyl)piperidin-3-ol] | > 500 nM | –
9 | O=C(C[C@H]1NCCC[C@@H]1O)Cn1cnc2c(Cl)ncnc21 [Example 44, 1-(6-chloro-9H-purin-9-yl)-3-((2R,3S)-3-hydroxypiperidin-2-yl)propan-2-one hydrochloride salt] | > 500 nM | –

Other lines, results leading:

Row | IC50 [1] | IC50 (NCI-H460 cells) | Compound
10 | < 100 nM | ≤ 5000 nM | O=C(C[C@H]1NCCC[C@@H]1O)Cn1cnc2cc(Cl)c(Cl)cc21 [Example 25, 1-(5,6-dichloro-1H-benzo[d]imidazol-1-yl)-3-((2R,3S)-3-hydroxypiperidin-2-yl)propan-2-one]
11 | < 100 nM | 5000 to 30000 nM | O=C(C[C@H]1NCCC[C@@H]1O)Cn1cnc2cncc(Br)c21 [Example 33, 1-(7-bromo-1H-imidazo[4,5-c]pyridin-1-yl)-3-((2R,3S)-3-hydroxypiperidin-2-yl)propan-2-one]
12 | < 100 nM | ≤ 5000 nM | Cc1c(Cl)ccc2c1ncn2CC(=O)C[C@H]1NCCC[C@@H]1O [Example 14, 1-(5-chloro-4-methyl-1H-benzo[d]imidazol-1-yl)-3-((2R,3S)-3-hydroxypiperidin-2-yl)propan-2-one]
13 | < 100 nM | 5000 to 30000 nM | O=C(C[C@H]1NCCC[C@@H]1O)Cn1c(CO)nc2ccc(Br)cc21 [Example 58, 1-(6-bromo-2-(hydroxymethyl)-1H-benzo[d]imidazol-1-yl)-3-((2R,3S)-3-hydroxypiperidin-2-yl)propan-2-one]
14 | < 100 nM | 5000 to 30000 nM | O=C(C[C@H]1NCCC[C@@H]1O)Cn1cnc2cccc(C(F)(F)F)c21 [Example 8, 1-((2R,3S)-3-hydroxypiperidin-2-yl)-3-(7-(trifluoromethyl)-1H-benzo[d]imidazol-1-yl)propan-2-one]
15 | < 100 nM | ≤ 5000 nM | O=C(C[C@H]1NCCC[C@@H]1O)Cn1cnc2c(Cl)c(Cl)ccc21 [Example 12, 1-(4,5-dichloro-1H-benzo[d]imidazol-1-yl)-3-((2R,3S)-3-hydroxypiperidin-2-yl)propan-2-one]
